Results as given in patent publication US20060034848A1, “Methods and compositions for treating Alzheimer's disease” (priority 2003, published 2006).
“Also recorded” adds a separate entry of the source.

Test system: LRP-CTF
Assay: LRP C-terminal fragment (CTF) western after DAPT treatment
Type: cell-based, mouse
Conditions: N2a cells cotransfected with LC-myc and empty vector, BACE or catalytically inactive BACE; DAPT treatment for 12 h vs vehicle
Procedure: FIG. 11 depicts a LRP CTF western. […] Shown is the intensity of a representative blot out four experiments without DAPT treatment and two with DAPT treatment.
The proteins were transferred to immobilon-P membrane (Millipore, Bedford, Mass.). Staining was performed according to Licor odyssey instructions and LRP light chain was detected by rabbit anti-myc Ab with 680 gt anti rabbit secondary and visualized on the Licor odyssey.
After cotransfection of LRP with BACE we saw an increase of LRP-CTF as well as in non-treated cells and even more after DAPT treatment.

## C[C@H](NC(=O)Cc1cc(F)cc(F)c1)C(=O)N[C@H](C(=O)OC(C)(C)C)c1ccccc1 [DAPT]
  LRP-CTF 25 kDa band intensity (western blot): increase of the LRP-CTF 25 kDa band; also recorded: increase of CTF intensity
